The target of one data set is Phosphatidylinositol 4,5-bisphosphate 3-kinase catalytic subunit alpha isoform (Homo sapiens, UniProt P42336). The data set is described as follows: Inhibition of PI3 kinase.
Sequence of Phosphatidylinositol 4,5-bisphosphate 3-kinase catalytic subunit alpha isoform (P42336 whole entry, canonical isoform): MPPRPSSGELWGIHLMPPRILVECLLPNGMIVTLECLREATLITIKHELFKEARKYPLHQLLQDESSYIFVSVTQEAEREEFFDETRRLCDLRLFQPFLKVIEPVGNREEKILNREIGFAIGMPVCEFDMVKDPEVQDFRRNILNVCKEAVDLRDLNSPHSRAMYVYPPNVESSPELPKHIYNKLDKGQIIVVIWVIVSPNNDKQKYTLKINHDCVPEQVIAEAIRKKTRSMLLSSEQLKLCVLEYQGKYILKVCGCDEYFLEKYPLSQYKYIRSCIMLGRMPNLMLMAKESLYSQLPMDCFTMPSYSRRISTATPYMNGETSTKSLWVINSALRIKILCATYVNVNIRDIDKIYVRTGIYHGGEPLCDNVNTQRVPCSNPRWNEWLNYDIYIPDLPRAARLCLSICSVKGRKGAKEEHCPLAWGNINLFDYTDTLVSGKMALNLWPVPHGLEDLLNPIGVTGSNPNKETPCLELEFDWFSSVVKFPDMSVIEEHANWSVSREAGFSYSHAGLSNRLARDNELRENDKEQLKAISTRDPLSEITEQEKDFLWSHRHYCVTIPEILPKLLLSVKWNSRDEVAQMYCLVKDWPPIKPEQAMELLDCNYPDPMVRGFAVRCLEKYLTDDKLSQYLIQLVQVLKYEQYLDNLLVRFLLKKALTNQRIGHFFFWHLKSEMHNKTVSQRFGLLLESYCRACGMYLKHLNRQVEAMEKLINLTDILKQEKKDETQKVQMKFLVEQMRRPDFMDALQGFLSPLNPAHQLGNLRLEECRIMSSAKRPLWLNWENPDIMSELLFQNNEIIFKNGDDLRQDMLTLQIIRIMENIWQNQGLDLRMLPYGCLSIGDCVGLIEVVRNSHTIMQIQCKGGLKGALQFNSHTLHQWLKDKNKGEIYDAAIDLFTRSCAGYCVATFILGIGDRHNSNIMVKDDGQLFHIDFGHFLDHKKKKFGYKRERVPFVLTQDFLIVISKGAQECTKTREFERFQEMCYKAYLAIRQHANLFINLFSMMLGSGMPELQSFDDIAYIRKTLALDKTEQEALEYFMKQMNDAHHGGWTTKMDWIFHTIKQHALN
Settings: not given
On to `C[C@@]12c3ccc4c(c3C(=O)c3occ(c31)C(=O)C[C@H]2O)CCC4=O` [DEMETHOXYVIRIDIN], for which the IC50 came out at 1 nM.
Same read-out and setting: the same measure for `COC[C@H]1OC(=O)/C(=C\N2CCCC2C(=O)O)C2=C(O)C(=O)C3=C([C@H](OC(C)=O)C[C@]4(C)C(=O)CC[C@@H]34)[C@]21C` (stereo partly drawn): 68 nM.
The same measure, in the same setting: the figure for `COC[C@H]1OC(=O)/C(=C\NCCCCC(NC(C)=O)C(=O)O)C2=C(O)C(=O)C3=C([C@H](OC(C)=O)C[C@]4(C)C(=O)CC[C@@H]34)[C@]21C` (stereo partly drawn) is > 1000 nM.
`C[C@@]12c3ccc4c(c3C(=O)c3occ(c31)C(=O)C[C@H]2OC(=O)CCC(=O)O)CCC4=O` came in with an IC50 of 20 nM. This lies in the double-digit nanomolar range.

Test system in another data set: not listed separately
The data set is described as follows: Stability in RPMI culture media assessed as half life at 1.5 mM by HPLC. Conditions: 1500 µM. It counts as physicochemical.
For the compound `COC[C@H]1OC(=O)c2coc3c2[C@@]1(C)C1=C(C3=O)[C@@H]2CCC(=O)[C@@]2(C)C[C@H]1OC(C)=O` [WORTMANNIN], the t1/2 came out at 0.99 min.
As to `C[C@@]12c3ccc4c(c3C(=O)c3occ(c31)C(=O)C[C@H]2O)CCC4=O` [DEMETHOXYVIRIDIN], the t1/2 is 0.47 min.
Same read-out and setting: the figure for `C[C@]12C(=C(O)C(=O)c3c1ccc1c3CCC1=O)/C(=C/NCC(=O)O)C(=O)C[C@H]2OC(=O)CCC(=O)O` is 64 min; for `C[C@@]12c3ccc4c(c3C(=O)c3occ(c31)C(=O)C[C@H]2OC(=O)CCC(=O)O)CCC4=O` it is 0.43 min.

Test system in the next data set: not listed separately
The data set is described as follows: Stability in PBS at pH 7.4 assessed as half life at 1.5 mM by HPLC in presence of NAc-lysine. In kind it is physicochemical. The note with it: buffer, pH 7.4, 1500 µM.
With `COC[C@H]1OC(=O)c2coc3c2[C@@]1(C)C1=C(C3=O)[C@@H]2CCC(=O)[C@@]2(C)C[C@H]1OC(C)=O` [WORTMANNIN], the t1/2 is 18.4 min.
Still for that read-out and setting: the same measure for `C[C@@]12c3ccc4c(c3C(=O)c3occ(c31)C(=O)C[C@H]2O)CCC4=O` [DEMETHOXYVIRIDIN]: 0.61 min.
Same read-out and setting: the same measure for `C[C@]12C(=C(O)C(=O)c3c1ccc1c3CCC1=O)/C(=C/NCC(=O)O)C(=O)C[C@H]2OC(=O)CCC(=O)O`: 94 min; for `C[C@@]12c3ccc4c(c3C(=O)c3occ(c31)C(=O)C[C@H]2OC(=O)CCC(=O)O)CCC4=O`: 23 min.

Test system in a further data set: not listed separately
The data set is described as follows: Stability in PBS at pH 7.4 assessed as half life at 1.5 mM by HPLC. It counts as physicochemical. Conditions: buffer, pH 7.4, 1500 µM.
On to `COC[C@H]1OC(=O)c2coc3c2[C@@]1(C)C1=C(C3=O)[C@@H]2CCC(=O)[C@@]2(C)C[C@H]1OC(C)=O` [WORTMANNIN], for which the t1/2 came out at 57.83 h.
On the same count and under the same terms, the same measure for `C[C@@]12c3ccc4c(c3C(=O)c3occ(c31)C(=O)C[C@H]2O)CCC4=O` [DEMETHOXYVIRIDIN]: 0.433 h; for `C[C@]12C(=C(O)C(=O)c3c1ccc1c3CCC1=O)/C(=C/NCC(=O)O)C(=O)C[C@H]2OC(=O)CCC(=O)O`: 3.63 h.
The same measure, in the same setting: the figure for `C[C@@]12c3ccc4c(c3C(=O)c3occ(c31)C(=O)C[C@H]2OC(=O)CCC(=O)O)CCC4=O` is 2 h.

Test system in another data set: not listed separately
As to the kind of experiment: Stability in PBS at pH 7.4 assessed as half life at 1.5 mM by HPLC in presence of proline. It counts as physicochemical. Conditions: buffer, pH 7.4, 1500 µM.
For `COC[C@H]1OC(=O)c2coc3c2[C@@]1(C)C1=C(C3=O)[C@@H]2CCC(=O)[C@@]2(C)C[C@H]1OC(C)=O` [WORTMANNIN], the t1/2 worked out at 1.5 min.
The same measure, in the same setting: the same measure for `C[C@@]12c3ccc4c(c3C(=O)c3occ(c31)C(=O)C[C@H]2O)CCC4=O` [DEMETHOXYVIRIDIN]: 0.59 min; for `C[C@]12C(=C(O)C(=O)c3c1ccc1c3CCC1=O)/C(=C/NCC(=O)O)C(=O)C[C@H]2OC(=O)CCC(=O)O`: 126 min; for `C[C@@]12c3ccc4c(c3C(=O)c3occ(c31)C(=O)C[C@H]2OC(=O)CCC(=O)O)CCC4=O`: 108 min.

Test system in another data set: not listed separately
As to the kind of experiment: Stability in PBS at pH 7.4 assessed as half life at 1.5 mM by HPLC in presence of glycine. It counts as physicochemical. The note with it: buffer, pH 7.4, 1500 µM.
`COC[C@H]1OC(=O)c2coc3c2[C@@]1(C)C1=C(C3=O)[C@@H]2CCC(=O)[C@@]2(C)C[C@H]1OC(C)=O` [WORTMANNIN]: the t1/2 is reported as 4.1 min.
Still for that read-out and setting: the same measure for `C[C@@]12c3ccc4c(c3C(=O)c3occ(c31)C(=O)C[C@H]2O)CCC4=O` [DEMETHOXYVIRIDIN]: 0.99 min.
On the same count and under the same terms, the same measure for `C[C@@]12c3ccc4c(c3C(=O)c3occ(c31)C(=O)C[C@H]2OC(=O)CCC(=O)O)CCC4=O`: 13.5 min.
